Data from PMC7751403, “Development of 2-oindolin-3-ylidene-indole-3-carbohydrazide derivatives as novel apoptotic and anti-proliferative agents towards colorectal cancer cells” (Journal of Enzyme Inhibition and Medicinal Chemistry, 2020).
Read-outs that look alike come from different tables or passages of the source.

How the values were obtained:
[1] = tested on: HT-29 colorectal cancer cell line; experiment: MTT cell viability assay, HT-29 colorectal cancer cells; type: cell-based, human
Protocol: (§1) HT29 and SW620 colorectal cancer cell lines and HFF-1 fibroblast (ATCC, Rockville, USA) were used. HT29 cells were cultured and maintained in Dulbecco’s Modified Eagle’s Medium (DMEM) (GIBCO, by Thermo Fischer Scientific, NY, USA) supplemented with 10% foetal bovine serum (FBS), 100 units/mL penicillin, and 100 µg streptomycin. SW620 and HFF-1 cells were cultured in Roswell Park Memorial Institute medium (RPMI-1640) (GIBCO, by Thermo scientific, NY, USA) supplemented with 10% FBS and 1% penicillin and streptomycin (Napolitano et al., 2015). All cultures were incubated at 37 °C and humidified atmosphere of 5% CO2.
(§2) The cytotoxicity effect of compounds on the colorectal cancer cell lines, HT29 and SW620 in addition to the normal human fibroblasts was measured by MTT (3–(4, 5-dimethylthiazol-2-yl)-2,5-diphenyltetrazolium bromide) (Sigma-Aldrich, St. Louis, MO, USA) as previously described. Briefly, cells were seeded in 96 well culture plates at 5000/well for HT29 and 10,000/well for SW620 for 24 h. Cells were then incubated with different compounds from WAG1 series (1–15) 24 h at 37 °C and humidified 5% CO2 incubator. Freshly prepared 10 µl of 3–(4,5-dimethylthiazol-2-yl)-2,5-diphenyltetrazolium bromide (MTT 5 mM) solution were added to the cells and further incubated for 2 h. Thereafter, 100 µl of dimethyl sulphoxide (DMSO) were added in each well and the crystals were dissolved through careful pipetting. In certain experiment, cells were treated different concentration of 5FU for 72 h. The absorbance of the product was measured at 540 nm using a Synergy™ 2 multi-mode microplate reader (Biotech, VA, USA). The experiments were performed in triplicate for each condition.

[2] = tested on: SW-620 colorectal cancer cell line; experiment: MTT cell viability assay, SW-620 colorectal cancer cells; type: cell-based, human
Protocol: as §1, §2

[3] = tested on: SW-620 cells; experiment: Annexin V-FITC/PI apoptosis assay (flow cytometry); type: cell-based, human; details: 24 h
Protocol: Induction of apoptosis was measured by Dead Cell Apoptosis Kit with Annexin V FITC and PI, for flow cytometry (Thermofischer scientific, OR, USA) according to the manufacturer’s instruction. As described previously (39), cells were seeded in a 6-well plate (3 × 10^5 cells per well) and treated with the various compound for 24 h. Both floating and adherent cells were harvested, pooled together, and incubated with Annexin V-FITC and PI for 15 min on ice in dark. The cells were analysed by BD FACSCalibur™ cell analyser (BD Biosciences, CA, USA) at an emission of 530 nm (FL1 channel) and >575 nm (FL3).

[4] = tested on: BclxL; experiment: Western blot of BclxL protein expression in SW-620 cells; type: cell-based, human; details: SW-620, two concentrations, 24 h, immunoblotting
Protocol: (§3) All cells were seeded in a 100 mm dish (1 × 10^6 cells per dish) in 5% CO2 at 37 °C in the appropriate culture medium. The cells with around 50% confluency were treated with compounds for 24 h. At the experiment day, cells were washed with 1x PBS, harvested and lysed in RIPA lysis buffer, combined with protease inhibitors, (Sigma-Aldrich, St. Louis, MO, USA) as described previously[39]). The total protein concentration was evaluated by the colorimetric Bradford protein assay (BIO-RAD inc, CA, USA) at 595 nm absorbance. Lysates were loaded in equal concentration and separated by sodium dodecyl sulfate-polyacrylamide gel electrophoresis (SDS-PAGE) and then transferred to a nitrocellulose membrane by semi-dry. Blocking of the membrane was done by 5% non-fat dried milk for one hour, incubated with the primary antibodies. The primary antibodies used were Bcl2 (cat. no. sc-7382), BclxL (cat. no. sc-8392) and β Actin (cat. no. sc-69879) from (Santa Cruz Biotechnology, Inc., Dallas, TX, USA). The secondary antibodies used were goat anti-mouse IgG-HRP (cat. no. sc-2005) and mouse anti-rabbit IgG-HRP (cat. no. sc-2357) from (Santa Cruz Biotechnology, Inc., Dallas, TX, USA). Detection was done with Luminol HRP chemiluminescence substrate (cat. no. sc-2048) from (Santa Cruz Biotechnology, Inc., Dallas, TX, USA) and then visualised by c-digit blot-scanner (LI-COR, Nebraska, USA).

[5] = tested on: Bcl2; experiment: Western blot of Bcl2 protein expression in SW-620 cells; type: cell-based, human; details: SW-620, two concentrations, 24 h, immunoblotting
Protocol: as §3

[6] = tested on: normal human skin fibroblast (HFF-1); experiment: MTT cell viability assay, normal fibroblast HFF-1; type: cell-based; details: 24 h
Protocol: as §1
The cytotoxicity effect of compounds on the colorectal cancer cell lines, HT29 and SW620 in addition to the normal human fibroblasts was measured by MTT (3–(4, 5-dimethylthiazol-2-yl)-2,5-diphenyltetrazolium bromide) (Sigma-Aldrich, St. Louis, MO, USA) as previously described. Briefly, cells were seeded in 96 well culture plates at 5000/well for HT29 and 10,000/well for SW620 for 24 h. Cells were then incubated with different compounds from WAG1 series (1–15) 24 h at 37 °C and humidified 5% CO2 incubator. […] The absorbance of the product was measured at 540 nm using a Synergy™ 2 multi-mode microplate reader (Biotech, VA, USA). […]

[7] = Homo sapiens, HT-29, MTT, compounds 24 h (5FU 72 h), three separate experiments, read-out: IC50 (nM) HT-29
[8] = Homo sapiens, SW-620, MTT, compounds 24 h (5FU 72 h), three separate experiments, read-out: IC50 (nM) SW-620
[9] = MTT, compounds 24 h (5FU 72 h), three separate experiments, read-out: IC50 (nM) HT-29
[10] = MTT, compounds 24 h (5FU 72 h), three separate experiments, read-out: IC50 (nM) SW-620

Structure (SMILES) | IC50 [1, 7] | IC50 [2, 8] | melting point | further results
O=C1Nc2c(F)cccc2C1=NNC(=O)c1c[nH]c2ccccc12 [Compound 7i, N'-(7-Fluoro-2-oxoindolin-3-ylidene)-1H-indole-3-carbohydrazide] | 140 nM | 468 nM | > 300 °C | –
O=c1[nH]cc(F)c(=O)[nH]1 [Compound 5-FU, 5-Fluorouracil, reference compound] | 4600 nM | 1500 nM | – | IC50 ([1]; Homo sapiens, HT-29, 72 h, MTT, 5FU 72 h, read-out: IC50 against HT-29): 1500 nM; IC50 ([2]; Homo sapiens, SW-620, 72 h, MTT, 5FU 72 h, read-out: IC50 against SW-620): 4600 nM
CCCN1C(=O)C(=NNC(=O)c2c[nH]c3ccccc23)c2ccccc21 [Compound 9b, N'-(2-Oxo-1-propylindolin-3-ylidene)-1H-indole-3-carbohydrazide] | 525 nM | 105 nM | 248 to 250 °C | –
O=C1Nc2ccc(F)cc2C1=NNC(=O)c1c[nH]c2ccccc12 [Compound 7b, N'-(5-Fluoro-2-oxoindolin-3-ylidene)-1H-indole-3-carbohydrazide] | 611 nM | 175 nM | > 300 °C | –
O=C1Nc2ccc(Cl)cc2C1=NNC(=O)c1c[nH]c2ccccc12 [Compound 7c, N'-(5-Chloro-2-oxoindolin-3-ylidene)-1H-indole-3-carbohydrazide] | 188 nM | 206 nM | – | fold total apoptosis increase compared to the control ([3]; SW-620, 250 nM): approximately 5.2 fold; fold total apoptosis increase compared to the control ([3]; SW-620, 500 nM): ~10.66 fold; IC50 [1, 9]: 206 nM; BclxL protein expression [4]: dose-dependent inhibition; IC50 [2, 10]: 188 nM; Bcl2 protein expression [5]: dose-dependent inhibition; effect on cell viability of HFF-1 [6]: no/or little effect
CCCN1C(=O)C(=NNC(=O)c2c[nH]c3ccccc23)c2cc(Cl)ccc21 [Compound 9d, N'-(5-Chloro-2-oxo-1-propylindolin-3-ylidene)-1H-indole-3-carbohydrazide] | 166 nM | 290 nM | 262 to 263 °C | –
CN1C(=O)C(=NNC(=O)c2c[nH]c3ccccc23)c2ccccc21 [Compound 9a, N'-(1-Methyl-2-oxoindolin-3-ylidene)-1H-indole-3-carbohydrazide] | 176 nM | 260 nM | 273 to 275 °C | –
O=C1Nc2ccccc2C1=NNC(=O)c1c[nH]c2ccccc12 [Compound 7a, N'-(2-Oxoindolin-3-ylidene)-1H-indole-3-carbohydrazide] | 408 nM | 145 nM | 259 to 261 °C | –
O=C(NN=C1C(=O)N(Cc2ccccc2)c2ccccc21)c1c[nH]c2ccccc12 [Compound 9c, N'-(1-Benzyl-2-oxoindolin-3-ylidene)-1H-indole-3-carbohydrazide] | 405 nM | 283 nM | 274 to 276 °C | –
O=C1Nc2ccc(Br)cc2C1=NNC(=O)c1c[nH]c2ccccc12 [Compound 7d, N'-(5-Bromo-2-oxoindolin-3-ylidene)-1H-indole-3-carbohydrazide] | 320 nM | 133 nM | 247 to 249 °C | –
COc1ccc2c(c1)C(=NNC(=O)c1c[nH]c3ccccc13)C(=O)N2 [Compound 7f, N'-(5-Methoxy-2-oxoindolin-3-ylidene)-1H-indole-3-carbohydrazide] | 142 nM | 37 nM | 197 to 199 °C | –
O=C1Nc2ccc(OC(F)(F)F)cc2C1=NNC(=O)c1c[nH]c2ccccc12 [Compound 7g, N'-(2-Oxo-5-(trifluoromethoxy)indolin-3-ylidene)-1H-indole-3-carbohydrazide] | 279 nM | 299 nM | – | fold total apoptosis increase compared to the control ([3]; SW-620, 250 nM): approximately 7.3 fold; fold total apoptosis increase compared to the control ([3]; SW-620, 500 nM): ~9.6 fold; IC50 [1, 9]: 299 nM; BclxL protein expression [4]: inhibit; IC50 [2, 10]: 279 nM; Bcl2 protein expression [5]: inhibit; effect on cell viability of HFF-1 [6]: no/or little effect
CCCN1C(=O)C(=NNC(=O)c2c[nH]c3ccccc23)c2cc(Br)ccc21 [Compound 9e, N'-(5-Bromo-2-oxo-1-propylindolin-3-ylidene)-1H-indole-3-carbohydrazide] | 290 nM | 414 nM | 255 to 256 °C | –
O=C1Nc2ccc([N+](=O)[O-])cc2C1=NNC(=O)c1c[nH]c2ccccc12 [Compound 7h, N'-(5-Nitro-2-oxoindolin-3-ylidene)-1H-indole-3-carbohydrazide] | 132 nM | 190 nM | > 300 °C | fold more active than 5FU against HT-29 ([1]; ratio of IC50 values versus 5FU): approximately 35 fold
Cc1cc(C)c2c(c1)C(=NNC(=O)c1c[nH]c3ccccc13)C(=O)N2 [Compound 7j, N'-(5,7-Dimethyl-2-oxoindolin-3-ylidene)-1H-indole-3-carbohydrazide] | 200 nM | 187 nM | > 300 °C | –
Cc1ccc2c(c1)C(=NNC(=O)c1c[nH]c3ccccc13)C(=O)N2 [Compound 7e, N'-(5-Methyl-2-oxoindolin-3-ylidene)-1H-indole-3-carbohydrazide] | 335 nM | 253 nM | 201 to 203 °C | –
